# Where “and” joins values, the source holds several entries; their conditions need not be identical. Equal values may be shown once. Entries after “also recorded” stand apart in the source; their conditions may differ. Read-outs that look alike come from different tables or passages of the source.
# Tests used:
# [1] = system: NALM-6 (B-ALL) cells; assay: Cell viability assay (WST-1); assay type: cell-based, human; settings: NALM-6, 24 h exposure, TP53 wild-type
# Protocol: (§1) B-/T-ALL cell lines were incubated with increasing concentrations of drug (5–1000 nM) for 24 and 48 h.
# (§2) In order to assess the cell viability after treatment with PF-00477736 (Pfizer), ALL cell lines were seeded in 96-well plates at 50,000 cell/100 μl/well with increasing concentrations of drug (0.005–2 μM) for 24 and 48 h and incubated at 37 °C. Cell viability was assessed by adding WST-1 reagent (Roche Applied Science, Basel, Switzerland) to the culture medium at 1:10 dilution. Cells were incubated at 37 °C, and the optical density was measured by microplate ELISA reader at λ = 450 after 3 h. The amount of the formazan formed directly correlates to the number of metabolically active cells. All viability experiments were performed in triplicates and repeated in least two separated experiments. In ex-vivo primary leukemia cells, the effects on cell viability were assessed by counting viable and non-viable cell numbers by the trypan blue dye exclusion method. Cells were seeded in six-well plates at 500,000 cell/1 ml with increasing concentrations of drug (0.1, 0.5, and 1 μM) for 24 h and incubated at 37 °C. Cellular viability was calculated as a percentage of the viable cells compared to the untreated controls (DMSO 0.1 %).
# [2] = system: RPMI-8402 (T-ALL) cells; assay: Cell viability assay (WST-1); assay type: cell-based, human; settings: RPMI-8402, 24 h exposure, p53 mutated
# Protocol: as §1, §2
# [3] = system: primary ALL blast cells; assay: Ex-vivo viability of primary leukemia cells (trypan blue dye exclusion); assay type: cell-based, human
# Protocol: The efficacy of PF-00477736 was confirmed in primary blast cells from 14 newly diagnosed cases including ten BCR-ABL1-positive (71 %) cases and four BCR-ABL1-negative ALL cases (29 %). Leukemic cells were incubated with increasing concentrations of drug (0.1, 0.5, and 1 μM) for 24 h. […]
# as §2, with “The amount of the formazan formed directly correlates to the number of metabolically active cells. All viability experiments were performed in triplicates and repeated in least two separated experiments.” left out, “Cells were seeded in six-well plates at 500,000 cell/1 ml with increasing concentrations of drug (0.1, 0.5, and 1 μM) for 24 h and incubated at 37 °C.” left out
# [4] = system: mice transplanted with T-ALL (ENU-induced murine leukemia); assay: In vivo efficacy in mice transplanted with T-ALL
# Protocol: Leukemic mice were generated by the usage of the tumorigenic agent N-ethyl-N-nitrosourea (ENU). […] Leukemic blasts coming from the spleen of leukemic animals were transplanted into C57BL/6Ly5.1-recipient mice. Three days after transplantation, a time sufficient for leukemic blasts to home the bone marrow of the host, we started to treat the animals.
# Experiments involving mice were performed in agreement with Italian guidelines and after the approval of the Institutional Review Board of the European Institute of Oncology. Leukemic mice were generated by a single administration of the tumorigenic agent N-ethyl-N-nitrosourea (Sigma, 50 mg/kg intraperitoneally). Spleen cells from leukemic C57BL6/Ly5.2 mice were injected intravenously (2 × 10^6 cells/mouse) into non-irradiated, recipient C57BL6/Ly5.1 mice. PF-0077736 was administered intraperitoneally starting from day 3 after the transplant of leukemic cells. Mice received doses of PF-0077736 (40 mg/kg each dose) every 3 days for four treatments (q3dx4). Kaplan-Meyer rank test was used to compare the survival rate between treated and control mice.
# [5] = system: leukemia cell lines; assay: PARP-1 cleavage by Western blot; assay type: cell-based, human; settings: 24 h of drug exposure; undetectable with DMSO 0.1 %
# Protocol: In order to assess whether cytotoxicity was correlated to increased susceptibility to apoptosis, B-/T-ALL cell lines were incubated with increasing concentrations of drug (0.1, 0.5, and 1 μM and 0.05, 0.1, and 0.2 μM only for BV-173 and RPMI-8402, respectively) for 24 and 48 h. […] The induction of apoptosis by PF-00477736 was also assessed by the detection of poly (ADP-ribose) polymerase (PARP) cleavage by Western blot analysis.
# To gain insight into the molecular mechanisms responsible for cell death following treatment, functional analyses by Western blot were performed. Leukemia cell lines were plated in six-well plates at 500,000 cell/1 ml with increasing concentrations of drug for 24 h and incubated at 37 °C. After the treatment, the cells were collected and lysate using a specific buffer made of KH2PO4 0.1 M (pH 7.5), Igepal 1 % (NP-40), β-glicerofosfato 0.1 mM, and complete protease inhibitor cocktail 1× (Roche Diagnostics). […] Finally, all these antibodies were detected using the enhanced chemiluminescence kit ECL (GE) and the compact darkroom ChemiDoc-It (UVP).
compound,measurement,setting,value
Cn1cc(-c2[nH]c3cc(NC(=O)[C@H](N)C4CCCCC4)cc4c3c2C=NNC4=O)cn1 [PF-00477736],IC50,[1],1420 nM
same,IC50,[2],57.4 nM
same,IC50,"[3]; primary ALL sample of one patient per table row (ID in c1), class of IC50 at 24 hours, read-out: Sensitivity",500 to 1000 nM and 100 to 500 nM
same,IC50,"[3]; primary blast cells, 21 % (3/14) of cases, 24 h, read-out: IC50 at 24 h, poor responders",> 1000 nM
same,overall survival vs vehicle,"[4]; 40 mg/kg intraperitoneally q3dx4, five treated vs seven control mice, p value =0.0009, listed as PF-0477736",significantly increases the overall survival; also recorded: increases the survival of treated mice
same,survival of treated animals post transplantation,"[4]; 40 mg/kg intraperitoneally q3dx4 from day 3 after transplant, five mice, controls (PBS) die all at day 17",up to 59 days
same,toxicity for the animals,"[4]; 40 mg/kg, q3dx4 schedule, intraperitoneally",seems not to be toxic
same,PARP-1 cleavage,[5],PARP-1 cleavage band at 89 kDa was observed
